Counter-ions that a name gives are not always drawn.
What was measured:
[1] = system: mice; test: Acute toxicity study in mice after intravenous (tail vein) injection of MPPs or MPP-conjugates; type: in vivo, mice (Kunming species)
Procedure: A total of 390 mice (Kunming species, 22 ± 2 g, sex matched), were provided by the Experimental animal center of Academy of military medical sciences, China. The health condition of the mice was examined to confirm their suitability for use in the study. The animal rooms were monitored and maintained under a 12 h light‐dark cycle with temperature ranging from 20 to 25°C and a relative humidity of 40–60%. All the mice were allowed to acclimate to the laboratory environment for 2 days, housed by sex in groups of five per cage, provided with standard commercial diet and drinking water ad libitum. All the animal procedures performed in this study were reviewed and approved by the Animal Experimental Welfare and Ethical Inspection Committee of the Chinese Center for Disease Control and Prevention (Approval number IACUC#15‐026).
Firstly, a preliminary sequential toxicity testing was carried to find out the scope of the dosage. Then four dosages within this range were properly selected to carry on the LD50 estimation. The LD50 was calculated avoid the all or none survival groups of mice.
Five males and five females per group were stratified by weight and assigned randomly. The control mice and those in groups 1, 2, 3, 4 were intravenously injected with different doses of MPPs or MPP‐conjugates. The general behavior and signs of toxicity were monitored for 3 h after administration, and carried on once a day up to 14 days. The surviving mice were euthanized while those died from the poisoning were necropsied.
All the data are expressed as the means ± standard deviation (SD), and comparisons among the different groups were performed using an analysis of variance (ANOVA). The IBM statistical package for the social science (SPSS) statistics 20 software was used for all the analysis. The significance level was set at 5 and 1% (P < 0.05 and P < 0.01). The LD50 value was determined according to the Bliss method (Badisa et al. 2008).

[2] = system: mice; conditions: converted from rat value; ref Saka et al. 2004; cited from earlier work
Excerpt: (§1) The mechanism of the poisonous effects caused by TAT and CTP is not yet well understood. However, it is known that L‐arginine stimulates the release of insulin and causes necrotic pancreatitis with specific elevation of amylase in serum and urine. […] Thus, the higher mass ratio of arginine residues in the conjugate (Table 4) might be the best explanation of the toxicity.

[3] = system: rats; conditions: ref Saka et al. 2004; cited from earlier work
Excerpt: as §1

[4] = iv, Bliss method, five males and five females per group, observed up to 14 days, Table 2

RRRRRRRRRRR [R11, undecapeptide composed purely of arginine residues, …]
LD50 ([1]; iv (tail vein), values in text): 16.5 mg/kg | Survival rate (%) ([1]; iv, 16.5 mg kg^−1): 50% | LD50 [1, 4]: 16.508 mg/kg | Mortality (%) ([1]; iv, group 1, 15.5 mg kg^−1): 10% | Mortality ([1]; iv, group 1, 15.5 mg kg^−1, dead/total): 1/10 | Mortality (%) ([1]; iv, group 2, 16 mg kg^−1): 30% | Mortality ([1]; iv, group 2, 16 mg kg^−1, dead/total): 3/10 | Mortality (%) ([1]; iv, group 3, 16.5 mg kg^−1): 50% | Mortality ([1]; iv, group 3, 16.5 mg kg^−1, dead/total): 5/10 | Mortality (%) ([1]; iv, group 4, 17 mg kg^−1): 70% | Mortality ([1]; iv, group 4, 17 mg kg^−1, dead/total): 7/10 | LD50 ([1]; iv, rounded values of Table 4): 16.5 mg/kg

ACSSSPSKHCG [TD]
Survival rate (%) ([1]; iv, 140 mg kg^−1): 100% | LD50 [1, 4]: >140 mg/kg | Mortality (%) ([1]; iv, group 1, 80 mg kg^−1): 0% | Mortality ([1]; iv, group 1, 80 mg kg^−1, dead/total): 0/2 | Mortality (%) ([1]; iv, group 2, 100 mg kg^−1): 0% | Mortality ([1]; iv, group 2, 100 mg kg^−1, dead/total): 0/8 | Mortality (%) ([1]; iv, group 3, 140 mg kg^−1): 0% | Mortality ([1]; iv, group 3, 140 mg kg^−1, dead/total): 0/8 | LD50 ([1]; iv, rounded values of Table 4): >140 mg/kg | Survival and side effects in words ([1]; tail vein, 140 mg kg^−1): all the mice well survived even without any side effect appeared

N=C(N)NCCC[C@H](N)C(=O)O [arginine]
LD50 of arginine, corresponding value in mice [2]: 542 mg/kg | LD50 of arginine in rats [3]: 3793 mg/kg

YGRKKRRQRRR [TAT, arginine-rich membrane-permeable undecapeptide …]
LD50 ([1]; iv (tail vein), values in text): 27.244 mg/kg | Survival rate (%) ([1]; iv, 27 mg kg^−1): 50% | LD50 [1, 4]: 27.244 mg/kg | Mortality (%) ([1]; iv, group 1, 25 mg kg^−1): 22.2% | Mortality ([1]; iv, group 1, 25 mg kg^−1, dead/total): 2/9 | Mortality (%) ([1]; iv, group 2, 27 mg kg^−1): 44.4% | Mortality ([1]; iv, group 2, 27 mg kg^−1, dead/total): 4/9 | Mortality (%) ([1]; iv, group 3, 28 mg kg^−1): 55.6% | Mortality ([1]; iv, group 3, 28 mg kg^−1, dead/total): 5/9 | Mortality (%) ([1]; iv, group 4, 30 mg kg^−1): 87.5% | Mortality ([1]; iv, group 4, 30 mg kg^−1, dead/total): 7/8 | LD50 ([1]; iv, rounded values of Table 4): 27 mg/kg

NCCCC(=O)O [GABA, γ‐aminobutyric acid]
Toxicity in words ([1]; dose as high as 8000 mg kg^−1): not toxic at all | Survival rate (%) ([1]; iv, 8000 mg kg^−1): 100%

O=C(O)C(F)(F)F [TFA, Trifluoroacetic acid]
Toxicity in words (TFA control group) ([1]; 0.1% TFA solution): did not manifest any toxicity | Toxicity in words (TFA control group) ([1]; 0.5% TFA solution): did not manifest any toxicity | Toxicity in words (TFA control group) ([1]; 1% TFA solution): did not manifest any toxicity | Toxicity in words (TFA control group) ([1]; 2% TFA solution): death appeared in a part of the mice

YGRRARRRRRR [CTP, arginine-rich membrane-permeable undecapeptide […]]
LD50 ([1]; iv (tail vein), values in text): 21.345 mg/kg | Survival rate (%) ([1]; iv, 21 mg kg^−1): 50% | LD50 [1, 4]: 21.345 mg/kg | Mortality (%) ([1]; iv, group 1, 19.5 mg kg^−1): 20% | Mortality ([1]; iv, group 1, 19.5 mg kg^−1, dead/total): 2/10 | Mortality (%) ([1]; iv, group 2, 20 mg kg^−1): 30% | Mortality ([1]; iv, group 2, 20 mg kg^−1, dead/total): 3/10 | Mortality (%) ([1]; iv, group 3, 20.5 mg kg^−1): 36.4% | Mortality (%) ([1]; iv, group 4, 22 mg kg^−1): 60% | Mortality ([1]; iv, group 4, 22 mg kg^−1, dead/total): 6/10 | LD50 ([1]; iv, rounded values of Table 4): 21 mg/kg

— paper PMC5625148, “Arginine‐rich membrane‐permeable peptides are seriously toxic” (Pharmacology Research & Perspectives, 2017)
